Literature values in patent US20040076646A1, “Haptenizing cancer cell components” (priority 2001, published 2004).

System: individuals / adult Americans

urushiol
amount of urushiol sufficient to induce the rash response (some individuals, molecular traces): ≤ 2 µg
proportion of adult Americans who respond (≦50 μg of purified material): 80-90%
